Experiments:
[1] = biological target: T1, CheA WT (Tm CheA) (Thermotoga maritima, UniProt Q56310); test: TNP-ATP displacement, fluorescence; type: binding
T1 sequence (Q56310 1-671): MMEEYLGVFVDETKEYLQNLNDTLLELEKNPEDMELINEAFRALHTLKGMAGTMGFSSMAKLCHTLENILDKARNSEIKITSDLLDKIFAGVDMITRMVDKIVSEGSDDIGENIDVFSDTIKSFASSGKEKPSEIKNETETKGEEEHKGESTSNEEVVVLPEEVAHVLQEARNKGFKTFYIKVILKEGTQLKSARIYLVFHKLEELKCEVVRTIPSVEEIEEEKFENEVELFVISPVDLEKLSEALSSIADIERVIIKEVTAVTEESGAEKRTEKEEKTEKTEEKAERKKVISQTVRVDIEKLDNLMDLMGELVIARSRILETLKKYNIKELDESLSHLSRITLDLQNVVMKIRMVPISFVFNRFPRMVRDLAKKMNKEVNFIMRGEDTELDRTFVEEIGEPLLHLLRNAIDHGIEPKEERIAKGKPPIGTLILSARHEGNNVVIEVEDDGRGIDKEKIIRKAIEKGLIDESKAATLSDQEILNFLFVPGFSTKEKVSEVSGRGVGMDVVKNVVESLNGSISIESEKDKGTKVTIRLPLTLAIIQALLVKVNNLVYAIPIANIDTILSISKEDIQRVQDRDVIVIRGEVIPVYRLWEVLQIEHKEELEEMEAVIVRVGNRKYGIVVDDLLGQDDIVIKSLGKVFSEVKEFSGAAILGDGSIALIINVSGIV

[2] = biological target: the molecule itself; test: SEC + other: SAXS

Molecule: Nc1ncnc2c1ncn2[C@@H]1O[C@H](COP(=O)(O)OP(=O)(O)O)[C@@H](O)[C@H]1O [ADP]
- IC50 [1]: 405 ± 21 µM

B1: Thermotoga maritima CheA WT (enzyme, UniProt Q56310 1-671, looked up)
chain: T1 sequence (Q56310 1-671)
- stoichiometry N [2]: 2
